Test results from patent US5532227A, “Tetracyclines including non-antimicrobial chemically-modified tetracyclines inhibit excessive glycosylation of different types of collagen and other proteins during diabetes” (The Research Foundation of State University of New York, priority 1994, dated 1996).
Like-named read-outs stand apart in the source and are kept apart here.

What was measured:
serum protein = assay: Glycosylated serum proteins in diabetic rats (Example IV, FIG. 5); type: in vivo, Sprague-Dawley rat; settings: 5 mg daily oral gavage, 21 days; effect p<0.05
Source text: (Control vs. Diabetic p<0.01, Diabetic vs. Diabetic treated with Doxycycline p<0.05, Diabetic vs. Diabetic treated with CMT-1 (4-dedimethyiaminotetracycline) p<0.05).
(§1) Sixteen adult male sprague-Dawley rats, each weighing approximately 350 grams, were divided into four groups 0f four animals per group.

[1] = type: in vivo, Sprague-Dawley rat; settings: for Serum CMT-1 Conc.: 21 days, mean of 4 rats ± S.E.M.; for serum concentration for individual rats: individual rats (data not shown), 30240 min
Description: (§2) Twenty-four adult male Sprague-Dawley rats were weighed (body weight between 350-375 g) and injected through the tail vein with either 0.9% saline (nondiabetic controls, NDC) or with the same solution containing streptozotocin ([…] body weight) to induce diabetes. The diabetic rats were distributed into five experimental groups (n=4 rats per group) and daily administered by oral gavage either 0, 1, 2, 5 or 10 mg of CMT-1 (4-dedimethylaminotetracycline, a chemically-modified non-antimicrobial tetracycline) suspended in 2% carboxymethylcellulose (CMC) for 21 days. The non-diabetic control rats were gavaged with the carrier alone (2% CMC). Urine glucose levels were measured weekly with Tes-Tape (Eli Lily, Inc., Indianapolis, Ind.).
On the 21st day, the rats were weighed and anesthetized with halothane (Halocarbon Laboratories) before blood samples were collected for serum glucose (Sigma glucose oxidase kit, St. Louis, Mo.) and CMT-1 determinations. The rats were then killed by exsanguination and the skin from the entire torso was dissected, weighed, and minced as described by Schneir et al., Diabetes 31:426 (1982).
The extraction and HPLC determination of the concentration of CMT-1 in rat serum was carried out as described by Yu et al., Biochem. Med. & Metabolic Biol. 47:10-20 (1992).
Serum CMT-1 concentration was assayed using the HPLC technique described by Yu et al., BioChem. Med. & Metabolic Biol. 47: 10-20 (1992). […].

[2] = test system: streptozotocin-diabetic rats; assay: Proteinuria: urine protein excretion in diabetic rats (Example III, FIG. 4); type: in vivo, rat; settings: recent experiments, data not shown; Golub et al. 1992 cited
Description: Example III was carried out to determine the effect of tetracycline therapy on proteinuria, a parameter of renal damage, in diabetic rats.
(§3) Streptozotocin-diabetic rats were treated by the daily oral administration of 20 mg minocycline/rat/day over a 4-week period. At the end of the protocol, 24-hour urines were collected to measure protein excretion.

[3] = test system: streptozotocin-diabetic rats; assay: Other signs of diabetes (hyperglycemia, glucosuria, polyuria) in diabetic rats (Example III); type: in vivo, rat
Description: as §3

skin collagen [4] = assay: Glycosylation of skin collagen in diabetic rats, anthrone method (Example IV, FIG. 6); type: in vivo, Sprague-Dawley rat; settings: 5 mg daily oral gavage, 21 days; effect p<0.05
Description: as §1
In addition, the entire skin was dissected from each rat. Samples containing 100mg of each skin were suspended in a Tris-HCl buffer containing 5mM CaCl2 and chromatographically-purified bacterial collagenase and incubated at 37° C. for 4 hours. Following incubation all samples were centrifugated at 35,000×G and the supernatants containing the skin collagen fragments were collected. The skin digest supernatants were analyzed for (1) carbohydrate-attached-to-collagen by the anthrone method, as described by Halhoul and Kleinberg ([…]) Anal. Biochem. 50: 337-343 and (2) total protein using the BioRad Assay, BioRad Chemical Division, Richmond, Calif.

skin collagen [5] = assay: Solubility of skin collagen in neutral salt and dilute acid, CMT-1 (Example I, FIGS. 2 and 3); type: in vivo, Sprague-Dawley rat; settings: for increase of collagen solubility in neutral salt solutions / increase of collagen solubility in dilute acid solutions: vs untreated diabetics, 4° C.
Description: as §2
Skin samples were examined for collagen solubility using the techniques described previously (Golub et al., J. Periodont. Res. 12:402 (1977), Golub et al., Biochim. Biophys. Acta 534:73 (1978)) with some modifications. Except where indicated, all steps were carried out at 4° C.
Briefly, for the preparation of neutral salt-soluble collagen, minced rat skin was extracted with Tris-HCl buffer (pH 7.4) for 2 days followed by centrifugation at 11,000×g for 20 min. The pellet was subjected to an additional extraction for 18 hr and centrifuged as described above. Both supernatants were then combined and dialyzed exhaustively against 3% acetic acid for 2 days.
For the preparation of acid-soluble collagen, the pellet was further extracted with 3% acetic acid as described for the neutral salt extraction. The neutral salt and dilute acid extracts were dried with a rotatory evaporator at 60° C. under vacuum.
Following acid hydrolysis, the dried samples from the two extractions were used for neutral salt- and acid-soluble collagen determinations, while the pellet was used to determine the amount of insoluble collagen.
The amount of collagen in the three different skin fractions was also estimated. In particular, aliquots of the hydrolysates were repeatedly evaporated and reconstituted with distilled water to remove the hydrochloric acid. After removal of hydrochloric acid, the aliquots Were colorimetrically analyzed for hydroxyproline, an amino acid "marker" of collagen.
(§4) The data were subject to statistical analysis. The standard error of the mean (S.E.M) was calculated from the standard deviation. The statistical significance between the groups were determined by analysis of variance while the significance of differences between groups was calculated by Tukey's test.

skin collagen [6] = assay: Glycosylation of diabetic rat skin collagen (Example V, Table IV); type: in vivo, Sprague-Dawley rat; settings: 5 mg daily oral gavage, 21 days
Description: All animals were weighed weekly.
The subcutaneous muscle layer was removed leaving essentially the dermis. The dermis (skin connective tissue) samples were minced, then homogenized in phosphate buffered saline (4° C.). Following centrifugation (at 9000 rpm, 4° C., 30 min.) of the homogenates, the supernatants were discarded. The pellets were repeatedly washed, then resuspended and extracted at 4° C. overnight in chloroform/methanol to remove lipids. The de-lipidized tissue samples were then washed in 100% methanol, then in 50% methanol. Following the methanol washes, the samples were washed with HEPES buffer (pH 7.4). The skin connective tissue samples (100 mg of each sample) were incubated at 37° C. (24 hours) with chromatographically-purified bacterial collagenase. After 24 hours the reaction mixture was centrifuged at 7000 rpm, room temperature for 30 minutes. Following centrifugation, the supernatants containing the digested collagen were collected. Aliquots of the supernatants were analyzed for glycosylated collagen using a modification of the Isolab Glyco-PROBE™ GSP assay kit. The assay is designed to measure glucose bound to protein which was then converted by Amadori rearrangement to fructosamine. For purposes of the present invention, the sample total protein was increased to compensate for low levels of glycosylated collagen compared to glycosylated serum proteins.

[7] = test system: streptozotocin-diabetic rats; assay: Blood glucose concentration of CMT-1-treated diabetic rats (Example I, FIG. 1); type: in vivo, Sprague-Dawley rat; settings: oral gavage, 1-10 mg/day, 21 days
Source text: Each value represents the mean ± S.E.M. for 4 rats per experimental group.
as §2
On the 21st day, the rats were weighed and anesthetized with halothane (Halocarbon Laboratories) before blood samples were collected for serum glucose (Sigma glucose oxidase kit, St. Louis, Mo.) and CMT-1 determinations. […]
as §4

SMILES: CC1(O)c2cccc(O)c2C(=O)C2=C(O)C3(O)C(=O)C(C(N)=O)=C(O)CC3CC21 (stereo not drawn) [CMT-1, 4-dedimethylaminotetracycline]
- fructosamine attached to serum protein (glycosylated serum protein) (serum protein): returned both of these parameters of abnormal glycosylation to essentially normal levels
- Serum CMT-1 Conc. ([1]; 1 mg CMT/day oral): 0.75 ± 0.04 µg/mL
- serum concentration for individual rats ([1]; 1 mg oral dose): 600 ng/mL
- Serum CMT-1 Conc. ([1]; 2 mg CMT/day oral): 1.75 ± 0.05 µg/mL
- Serum CMT-1 Conc. ([1]; 5 mg CMT/day oral): 3.90 ± 0.16 µg/mL
- Serum CMT-1 Conc. ([1]; 10 mg CMT/day oral): 5.80 ± 0.25 µg/mL
- serum concentration for individual rats ([1]; 10 mg oral dose): 6500 ng/mL
- proteinuria in diabetic rats [2]: a reduction in proteinuria
- other signs of diabetes including hyperglycemia, glucosuria and polyuria [3]: Neither treatment with minocycline nor CMT-1 reduced the other signs of diabetes
- glycosylation of skin collagen (skin collagen [4]): returned both of these parameters of abnormal glycosylation to essentially normal levels
- increase of collagen solubility in neutral salt solutions (skin collagen [5]; 1 mg CMT/day oral): 10%
- increase of collagen solubility in dilute acid solutions (skin collagen [5]; 1 mg/day oral): 18%
- increase of collagen solubility in dilute acid solutions (skin collagen [5]; 10 mg/day oral): 174%
- increase of collagen solubility in neutral salt solutions (skin collagen [5]; 10 mg/day oral): 91%
- quality of collagen in the skin (inhibition of excess crosslinking) (skin collagen [5]; diabetic rats, oral): normalized
- mM Fructosamine/mg protein (Mean ± SE) (skin collagen [6]; NDC 0.027, untreated diabetic 0.377): 0.123 ± 0.011 mM Fructosamine/mg protein
- Reduction of glycosylation in treated diabetics (%) (skin collagen [6]; vs untreated diabetic control): 67.4%
- severity of hyperglycemia (blood glucose concentration) [7]: did not significantly alter the severity of hyperglycemia
